Activity calls are given as the source filed them. The calls are words filed in the database; no cut-off is given here.
Tests used:
Transporter [1] = target: T1, Transporter (Rattus norvegicus, UniProt Q63380); assay: Displacement of [3H]-nisoxetine from NET in rat hippocampal membrane incubated for 8 hrs by liquid scintillation counting method; format: cell membranes, Hippocampus
[2] = target: T2, 5-hydroxytryptamine receptor 2C (Rattus norvegicus, UniProt P08909); assay: Displacement of [3H]-mesulergine from 5-HT2C in rat cerebral cortex incubated for 15 mins by liquid scintillation counting method; format: tissue-based
T2 sequence (P08909 whole entry): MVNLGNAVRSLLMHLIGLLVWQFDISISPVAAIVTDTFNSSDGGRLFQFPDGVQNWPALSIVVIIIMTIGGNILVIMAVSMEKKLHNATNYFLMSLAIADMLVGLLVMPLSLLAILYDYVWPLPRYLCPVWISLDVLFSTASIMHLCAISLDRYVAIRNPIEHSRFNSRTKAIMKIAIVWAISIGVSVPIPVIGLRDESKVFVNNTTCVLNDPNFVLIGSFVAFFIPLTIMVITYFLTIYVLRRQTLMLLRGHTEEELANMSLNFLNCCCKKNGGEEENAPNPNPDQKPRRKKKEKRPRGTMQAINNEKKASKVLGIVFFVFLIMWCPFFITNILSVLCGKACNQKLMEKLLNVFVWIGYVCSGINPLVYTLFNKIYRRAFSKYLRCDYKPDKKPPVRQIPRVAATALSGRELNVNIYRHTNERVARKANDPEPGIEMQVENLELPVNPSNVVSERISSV

histamine H1 receptor = assay: Displacement of [3H]-pyrilamine from H1 receptor in guinea pig cerebellum membrane incubated for 60 mins by liquid scintillation counting method; format: toxicity, cell membranes, Cavia porcellus; details: probe [3H]-pyrilamine
[3] = target: Sodium-dependent serotonin transporter (Rattus norvegicus, UniProt P31652); assay: Antagonist activity at rat cerebral cortex membrane SERT incubated for 10 mins in presence of [3H]5-HT; format: cell membranes
Transporter [4] = target: T1, Transporter; assay: Antagonist activity at rat cerebral cortex membrane NET incubated for 10 mins in presence of [3H]-NE; format: cell membranes
[5] = target: 5-hydroxytryptamine receptor 2A (Homo sapiens, UniProt P28223); assay: Antagonist activity at 5-HT2A in HEK293 cells at 10 uM incubated for 60 mins by FLIPR assay relative to control; format: cell-based; design: scale not given: the % may be the effect or the level left; details: filed as antagonist
[6] = target: T3, 5-hydroxytryptamine receptor 2C (Homo sapiens) (UniProt P28335); assay: Agonist activity at 5-HT2C in HEK293 cells at 10 uM incubated for 60 mins by FLIPR assay relative to control; format: functional, cell-based; details: filed as agonist
T3 sequence (whole entry): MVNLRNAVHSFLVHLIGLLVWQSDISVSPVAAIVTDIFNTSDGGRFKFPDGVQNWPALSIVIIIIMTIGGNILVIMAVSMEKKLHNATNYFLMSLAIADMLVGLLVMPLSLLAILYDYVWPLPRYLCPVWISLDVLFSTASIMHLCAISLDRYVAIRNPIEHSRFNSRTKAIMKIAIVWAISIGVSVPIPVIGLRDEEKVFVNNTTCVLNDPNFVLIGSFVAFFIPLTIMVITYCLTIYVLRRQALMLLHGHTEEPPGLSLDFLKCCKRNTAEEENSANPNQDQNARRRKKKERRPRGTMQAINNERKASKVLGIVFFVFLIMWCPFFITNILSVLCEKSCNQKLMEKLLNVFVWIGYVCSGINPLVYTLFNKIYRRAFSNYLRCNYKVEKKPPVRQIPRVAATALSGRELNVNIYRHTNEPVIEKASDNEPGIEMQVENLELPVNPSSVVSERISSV

[7] = target: 5-hydroxytryptamine receptor 2C (Homo sapiens, UniProt P28335); assay: Antagonist activity at 5-HT2C in HEK293 cells incubated for 60 mins by FLIPR assay; format: cell-based
Mus musculus [8] = assay: Antidepressant activity in IG dosed Kunming mouse assessed as decrease in immobility time by measuring minimal effective dose by tail suspension test; format: functional
Mus musculus [9] = assay: Antidepressant activity in Kunming mouse assessed as effect on spontaneous locomotor activity by measuring total travel distance at 7.5 to 60 mg/kg, po administered for 60 mins and measured for 15 mins; format: functional, organism-based; details: dose lower […], dose upper 60.0 mg/kg
Mus musculus [10] = assay: Antidepressant activity in Kunming mouse chronic unpredictable mild stress model assessed as increase in sucrose preference at 2 to 6 mg/kg, IG measured after 3 weeks; format: functional, organism-based; details: dose 2-6 mg/kg
[11] = (§1) In vivo inhibition of 5-HT2A in po dosed DOI-induced Kunming mouse assessed as reduction in head twitch response pretreated for 60 mins followed by DOI induction and measured for 20 mins; format: functional; details: 1.333 h, time 80 min
Mus musculus [12] = assay: as §1; format: functional; details: time 80.0 min
Rattus norvegicus = assay: Antidepressant activity against ig dosed ACTH-induced treatment resistant depression in Sprague-Dawley rat model assessed as reduction in immobility time by forced swimming test; format: functional; details: po
D(1A) dopamine receptor = D(1A) dopamine receptor (Homo sapiens, UniProt P21728); assay: Binding affinity to D1 receptor (unknown origin)
[13] = target: Alpha-2A adrenergic receptor (Homo sapiens, UniProt P08913); assay: Binding affinity to alpha-2 adrenergic receptor (unknown origin)
Histamine H2 receptor = Histamine H2 receptor (Homo sapiens, UniProt P25021); assay: Binding affinity to H2 receptor (unknown origin)
Histamine H4 receptor = Histamine H4 receptor (Homo sapiens, UniProt Q9H3N8); assay: Binding affinity to H4 receptor (unknown origin)
[14] = target: 5-hydroxytryptamine receptor 1A (Homo sapiens, UniProt P08908); assay: Binding affinity to 5-HT1A receptor (unknown origin)
[15] = target: 5-hydroxytryptamine receptor 6 (Homo sapiens, UniProt P50406); assay: Binding affinity to 5-HT6 receptor (unknown origin)
[16] = target: 5-hydroxytryptamine receptor 7 (Homo sapiens, UniProt P34969); assay: Binding affinity to 5-HT7 receptor (unknown origin)
[17] = target: Sigma non-opioid intracellular receptor 1 (Homo sapiens, UniProt Q99720); assay: Binding affinity to sigma 1 receptor (unknown origin)
[18] = target: Sigma intracellular receptor 2 (Homo sapiens, UniProt Q5BJF2); assay: Binding affinity to sigma 2 receptor (unknown origin)
[19] = target: Glutamate [NMDA] receptor; assay: Binding affinity to NMDA receptor (unknown origin); format: protein-complex assay, Homo sapiens
[20] = Cmax in CD1 mouse at 2 mg/kg, iv measured upto 10 hrs by LC-MS analysis; format: ADME, organism-based; details: in vivo
[21] = Cmax in CD1 mouse at 15 mg/kg, po measured upto 24 hrs by LC-MS analysis; format: ADME, organism-based; details: in vivo
[22] = Tmax in CD1 mouse at 2 mg/kg, iv measured upto 10 hrs by LC-MS analysis; format: ADME, organism-based; details: in vivo
[23] = Tmax in CD1 mouse at 15 mg/kg, po measured upto 24 hrs by LC-MS analysis; format: ADME, organism-based; details: in vivo
[24] = Half-life in CD1 mouse at 2 mg/kg, iv measured upto 10 hrs by LC-MS analysis; format: ADME, organism-based; details: in vivo
[25] = AUC(0 to t) in CD1 mouse at 2 mg/kg, iv measured upto 10 hrs by LC-MS analysis; format: ADME, organism-based; details: in vivo
[26] = MRTlast in CD1 mouse at 15 mg/kg, po measured upto 24 hrs by LC-MS analysis; format: ADME, organism-based; details: in vivo
[27] = Oral bioavailability in CD1 mouse at 15 mg/kg measured upto 24 hrs by LC-MS analysis; format: ADME, organism-based; details: in vivo

T1 sequence (Q63380 whole entry): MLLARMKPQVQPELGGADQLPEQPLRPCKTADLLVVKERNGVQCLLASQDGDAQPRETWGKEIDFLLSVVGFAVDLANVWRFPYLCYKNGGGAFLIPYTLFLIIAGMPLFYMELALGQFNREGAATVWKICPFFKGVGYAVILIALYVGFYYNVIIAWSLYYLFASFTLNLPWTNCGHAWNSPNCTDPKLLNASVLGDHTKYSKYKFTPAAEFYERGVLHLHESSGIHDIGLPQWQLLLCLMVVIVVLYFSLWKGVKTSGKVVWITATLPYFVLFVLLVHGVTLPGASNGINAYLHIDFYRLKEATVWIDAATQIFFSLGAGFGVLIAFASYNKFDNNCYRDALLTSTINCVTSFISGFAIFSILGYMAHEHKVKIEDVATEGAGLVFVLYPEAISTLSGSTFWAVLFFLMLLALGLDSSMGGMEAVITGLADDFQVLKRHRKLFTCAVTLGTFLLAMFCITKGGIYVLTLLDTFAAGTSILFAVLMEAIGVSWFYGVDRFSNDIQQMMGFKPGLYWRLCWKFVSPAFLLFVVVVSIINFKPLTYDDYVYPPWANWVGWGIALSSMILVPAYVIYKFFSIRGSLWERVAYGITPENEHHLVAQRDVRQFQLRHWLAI
D(1A) dopamine receptor, sequence (P21728 whole entry): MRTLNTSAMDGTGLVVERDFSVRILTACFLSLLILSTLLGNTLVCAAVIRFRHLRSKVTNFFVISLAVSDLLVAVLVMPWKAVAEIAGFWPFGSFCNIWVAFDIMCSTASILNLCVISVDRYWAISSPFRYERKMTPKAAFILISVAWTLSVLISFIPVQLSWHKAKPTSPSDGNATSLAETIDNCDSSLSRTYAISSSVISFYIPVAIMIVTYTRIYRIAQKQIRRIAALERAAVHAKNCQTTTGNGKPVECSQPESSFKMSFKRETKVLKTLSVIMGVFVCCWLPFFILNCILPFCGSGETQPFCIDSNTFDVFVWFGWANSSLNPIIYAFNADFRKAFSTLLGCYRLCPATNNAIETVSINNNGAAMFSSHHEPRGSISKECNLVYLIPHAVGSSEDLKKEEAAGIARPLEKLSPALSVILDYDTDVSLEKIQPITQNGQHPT
5-hydroxytryptamine receptor 7, sequence (P34969 whole entry): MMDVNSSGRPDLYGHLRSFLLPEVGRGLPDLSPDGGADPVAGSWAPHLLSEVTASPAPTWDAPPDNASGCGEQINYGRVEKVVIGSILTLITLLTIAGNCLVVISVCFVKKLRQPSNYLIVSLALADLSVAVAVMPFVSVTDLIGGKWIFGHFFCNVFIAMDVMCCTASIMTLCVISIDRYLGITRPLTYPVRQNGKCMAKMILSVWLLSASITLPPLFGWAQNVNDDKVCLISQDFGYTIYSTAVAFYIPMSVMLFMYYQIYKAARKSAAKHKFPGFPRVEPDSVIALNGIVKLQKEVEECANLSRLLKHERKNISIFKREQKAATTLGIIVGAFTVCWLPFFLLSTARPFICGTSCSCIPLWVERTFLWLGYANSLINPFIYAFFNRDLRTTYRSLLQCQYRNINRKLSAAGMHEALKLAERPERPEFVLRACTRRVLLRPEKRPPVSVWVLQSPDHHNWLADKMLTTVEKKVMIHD
Sigma non-opioid intracellular receptor 1, sequence (Q99720 whole entry): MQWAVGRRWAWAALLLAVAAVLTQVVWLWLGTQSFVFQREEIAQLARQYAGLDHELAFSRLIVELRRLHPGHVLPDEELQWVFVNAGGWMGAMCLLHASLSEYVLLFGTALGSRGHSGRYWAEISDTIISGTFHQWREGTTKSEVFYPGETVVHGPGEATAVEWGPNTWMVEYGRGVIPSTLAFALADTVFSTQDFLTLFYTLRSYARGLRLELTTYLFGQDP
Alpha-2A adrenergic receptor, sequence (P08913 whole entry): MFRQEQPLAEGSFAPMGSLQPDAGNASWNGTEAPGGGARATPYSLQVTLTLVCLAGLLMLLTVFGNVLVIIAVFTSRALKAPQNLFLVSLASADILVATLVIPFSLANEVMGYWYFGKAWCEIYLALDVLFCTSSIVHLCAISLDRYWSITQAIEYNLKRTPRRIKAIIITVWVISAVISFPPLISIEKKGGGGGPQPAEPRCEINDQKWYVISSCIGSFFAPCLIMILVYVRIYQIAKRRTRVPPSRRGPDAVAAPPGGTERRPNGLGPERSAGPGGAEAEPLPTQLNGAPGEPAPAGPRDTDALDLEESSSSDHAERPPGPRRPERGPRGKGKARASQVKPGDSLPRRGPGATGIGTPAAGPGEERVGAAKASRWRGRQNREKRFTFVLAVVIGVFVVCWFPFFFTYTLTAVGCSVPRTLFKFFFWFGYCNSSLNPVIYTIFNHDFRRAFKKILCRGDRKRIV
5-hydroxytryptamine receptor 6, sequence (P50406 whole entry): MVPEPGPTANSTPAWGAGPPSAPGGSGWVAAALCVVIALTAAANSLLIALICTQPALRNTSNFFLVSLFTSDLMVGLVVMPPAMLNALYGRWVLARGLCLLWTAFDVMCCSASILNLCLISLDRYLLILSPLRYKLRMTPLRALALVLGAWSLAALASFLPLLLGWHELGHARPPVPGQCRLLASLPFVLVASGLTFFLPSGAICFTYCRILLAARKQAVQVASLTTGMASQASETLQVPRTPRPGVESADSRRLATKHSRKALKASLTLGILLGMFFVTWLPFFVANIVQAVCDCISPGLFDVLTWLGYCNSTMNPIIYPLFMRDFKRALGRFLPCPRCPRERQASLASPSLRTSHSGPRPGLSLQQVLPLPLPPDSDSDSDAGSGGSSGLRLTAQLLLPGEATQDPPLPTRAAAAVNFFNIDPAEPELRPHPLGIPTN
Histamine H2 receptor, sequence (P25021 whole entry): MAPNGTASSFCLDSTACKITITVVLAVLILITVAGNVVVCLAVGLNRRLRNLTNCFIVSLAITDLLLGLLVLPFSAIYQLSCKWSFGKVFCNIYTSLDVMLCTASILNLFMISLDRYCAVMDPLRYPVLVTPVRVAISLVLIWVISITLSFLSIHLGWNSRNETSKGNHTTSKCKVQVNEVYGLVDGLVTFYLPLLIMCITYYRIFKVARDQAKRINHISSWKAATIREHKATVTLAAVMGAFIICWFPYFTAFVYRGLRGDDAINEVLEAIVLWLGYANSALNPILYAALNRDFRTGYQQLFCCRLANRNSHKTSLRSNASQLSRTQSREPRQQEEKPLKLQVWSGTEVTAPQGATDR
Sodium-dependent serotonin transporter, sequence (P31652 whole entry): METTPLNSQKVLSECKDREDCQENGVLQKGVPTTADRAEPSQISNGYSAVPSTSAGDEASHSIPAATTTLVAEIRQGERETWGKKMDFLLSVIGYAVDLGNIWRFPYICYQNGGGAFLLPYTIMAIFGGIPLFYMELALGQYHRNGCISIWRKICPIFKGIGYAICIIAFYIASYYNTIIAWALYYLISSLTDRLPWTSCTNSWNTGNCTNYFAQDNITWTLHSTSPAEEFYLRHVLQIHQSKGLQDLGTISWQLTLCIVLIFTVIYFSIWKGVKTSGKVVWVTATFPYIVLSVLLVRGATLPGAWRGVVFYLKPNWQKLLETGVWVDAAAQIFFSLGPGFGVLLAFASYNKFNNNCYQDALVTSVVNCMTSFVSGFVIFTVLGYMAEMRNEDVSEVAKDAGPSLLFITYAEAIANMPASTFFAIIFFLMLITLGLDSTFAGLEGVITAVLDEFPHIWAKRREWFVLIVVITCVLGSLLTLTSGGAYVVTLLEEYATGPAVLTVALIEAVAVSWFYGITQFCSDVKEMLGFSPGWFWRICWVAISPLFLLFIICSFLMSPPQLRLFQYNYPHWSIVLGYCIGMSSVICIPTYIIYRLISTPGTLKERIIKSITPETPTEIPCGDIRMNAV
Histamine H4 receptor, sequence (Q9H3N8 whole entry): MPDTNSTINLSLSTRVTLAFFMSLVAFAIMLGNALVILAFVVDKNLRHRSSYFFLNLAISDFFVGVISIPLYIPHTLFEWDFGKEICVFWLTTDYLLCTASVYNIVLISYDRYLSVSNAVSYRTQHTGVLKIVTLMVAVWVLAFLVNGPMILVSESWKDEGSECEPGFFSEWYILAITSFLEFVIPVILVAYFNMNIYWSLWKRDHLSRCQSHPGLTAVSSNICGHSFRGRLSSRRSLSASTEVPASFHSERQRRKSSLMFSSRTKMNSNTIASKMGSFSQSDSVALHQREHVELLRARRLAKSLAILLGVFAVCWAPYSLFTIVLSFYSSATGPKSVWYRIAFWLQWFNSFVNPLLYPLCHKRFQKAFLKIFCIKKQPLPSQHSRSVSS
Sigma intracellular receptor 2, sequence (Q5BJF2 whole entry): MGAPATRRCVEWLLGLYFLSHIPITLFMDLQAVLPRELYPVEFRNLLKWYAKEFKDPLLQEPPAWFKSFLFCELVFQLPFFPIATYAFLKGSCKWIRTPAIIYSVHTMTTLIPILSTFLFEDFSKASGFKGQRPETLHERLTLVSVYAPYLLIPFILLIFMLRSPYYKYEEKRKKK
5-hydroxytryptamine receptor 2A, sequence (P28223 whole entry): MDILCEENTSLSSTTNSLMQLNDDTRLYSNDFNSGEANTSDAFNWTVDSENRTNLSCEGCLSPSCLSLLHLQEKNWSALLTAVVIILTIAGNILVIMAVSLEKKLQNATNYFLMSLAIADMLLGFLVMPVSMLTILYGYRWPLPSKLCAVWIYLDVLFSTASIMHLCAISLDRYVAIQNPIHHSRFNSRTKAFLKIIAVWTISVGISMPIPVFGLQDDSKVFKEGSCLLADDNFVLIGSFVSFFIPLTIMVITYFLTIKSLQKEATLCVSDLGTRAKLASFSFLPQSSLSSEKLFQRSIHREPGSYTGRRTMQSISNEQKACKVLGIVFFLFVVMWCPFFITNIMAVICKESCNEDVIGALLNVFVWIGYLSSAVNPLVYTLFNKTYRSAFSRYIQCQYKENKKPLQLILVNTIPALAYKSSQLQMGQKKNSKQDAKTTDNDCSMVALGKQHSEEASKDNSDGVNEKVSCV

CN(C)CC[C@@H](Oc1cccc2c1OCO2)c1ccc(F)cc1.O=C(O)C(=O)O
Ki (Transporter [1]): 0.0023 µM
Ki [2]: 0.0157 µM
Ki at 60 min (histamine H1 receptor): 1 µM
IC50 [3]: 0.0232 µM
IC50 (Transporter [4]): 0.087 µM
Activity [5]: 100%
Activity [6]: 18.1%
IC50 [7]: 0.0875 µM
Activity (Mus musculus [8]): Dose-dependent-effect
minimal effective dose (Mus musculus [8]; po, read-out: MED): 6.4 mg/kg
Activity (Mus musculus [9]): inactive
Activity (Mus musculus [10]): Active
ED50 [11]: 1.07 mg/kg
Activity (Mus musculus [12]): Dose-dependent-effect
ED50 (Rattus norvegicus): 23.1 mg/kg
Ki (D(1A) dopamine receptor): > 1 µM
Ki [13]: > 1 µM
Ki (Histamine H2 receptor): > 1 µM
Ki (Histamine H4 receptor): > 1 µM
Ki [14]: > 1 µM
Ki [15]: > 1 µM
Ki [16]: > 1 µM
Ki [17]: > 1 µM
Ki [18]: > 1 µM
Ki [19]: > 1 µM
Cmax [20]: 0.42 µg/mL
Cmax [21]: 0.144 µg/mL
Tmax [22]: 4.8 min
Tmax [23]: 30 min
half-life [24]: 72 min
AUC(0-t) at 10 h [25]: 0.304 µg·h/mL
MRT last at 24 h [26]: 186 min
bioavailability [27]: 20.3%

Source: ChEMBL document CHEMBL6083240, “Design, synthesis and biological evaluation of arylpropylamine derivatives as potential multi-target antidepressants” (Bioorg Med Chem, 2024)
